Values quoted from earlier work as cited in patent publication US20260232690A1, “Treatment of the Chronic Effects of Brain Injury Using Rho Kinase Inhibitors” (WOOLSEY PHARMACEUTICALS, INC., priority 2023, published 2026).

System: salt-loaded hypertensive stroke-prone rats

In the case of `Cl.O=S(=O)(c1cccc2cnccc12)N1CCCNCC1` [Fasudil, 5-(1,4-Diazepane-1-sulfonyl) isoquinoline], the nephrosclerosis is listed as “attenuate nephrosclerosis” and the survival is listed as “improve survival”.
